Measured values taken from patent US20210244686A1, “Novel Systems And Methods For The Therapeutic Use of Cannabinoids or Cannabinoid Analogs to Increase The Lipid Order of Cholesterol Containing Cell Membranes” (The Regents of the University of Colorado a body corporate, priority 2018, published 2021).

Tests used:
Assay type in all cases: cell-based, human
SK-N-BE(2) cells [1] = assay: cells
Description: To efficiently design the multi-omics experiments, the present inventors exposed the neuroblastoma cell line SK-N-BE(2) to escalating doses of CBD at 24, 48, and 72 hours and determined the EC50 of toxicity of CBD to be greatest at 72 hours and at an approximate concentration of 20 μM (FIG. 1 B). To maximize the efficient use of the inventor's multi-omic resources, a large dose and time survey of the CBD response was conducted in a panel of transgenic SK-N-BE(2) and HaCaT keratinocyte cell lines, each expressing a genetically encoded förster resonance energy transfer (FRET) biosensor gene capable of reporting the activity of a cellular effector molecule/activity including, but not limited to: AMP kinase activity, Erk kinase activity, cytosolic ATP, glucose, lactate, pyruvate & glutamine, Ca^2+ in the ER & Cytosol, mTor kinase activity & TACE protease activity. […] The biosensor activity profiles as a function of CBD dose and time (FIGS. 9A-C) were analyzed for the EC50 of each biosensor activity at each time (FIG. 10). The result of these efforts outlined that the most robust dose of CBD for use in multi-omic experiments is 20 μM and that the kinetic profile of the CBD response begins in hours and persists for days.

SK-N-BE(2) cells [2] = assay: RNAseq transcriptomics of CBD response; conditions: 20 μM CBD
Description: In order to compare and contrast proteomic derived mechanistic components of the CBD response to that of transcriptomic components, the present inventors additionally performed RNAseq analysis of SK-N-BE(2) cells exposed to vehicle or 20 μM CBD at the time-points indicated in FIG. 1C. 5,643 differentially expressed genes were identified in the CBD response gene with a FDR<1%, which was further reduced to a list of 139 genes with an LFC>=1. […] While most of these annotations are supported by either the transcriptome or the proteome, dysregulation of cholesterol metabolism is supported by both. […] As a result of the agreement between proteomic and transcriptomic data, we focused our study thereafter on determining the role of cholesterol homeostasis in the CBD drug response.
Sequencing was performed on seven consecutive lanes. Median read counts per lane were ˜49,000 with a CV of ˜7%. Starting with 228 fastq files, each lane set was concatenated per condition. Using Trimmomtic-0.36, base pairs were trimmed if they dropped below a PHRED score of 15 within a sliding window of 4 bp. Remaining reads shorter than 35 base pairs were removed. Illumina adapter sequences were also clipped using Trimmomatic. […] Read alignment was accomplished using Tophat-2.0.13 and Cufflinks/Cuffdiff 2.2.1 was used for FPKM quantitation and differential expression analysis per time point.

SK-N-BE(2) cells [3] = assay: Live cell confocal microscopy of NBD-cholesterol and lysotracker; conditions: after 24 hours, only with NPC1 inhibitor U18666A and CBD 20 μM
From the text: One possible explanation for why CBD sensitizes cells to inhibitors of cholesterol trafficking and storage is that CBD increases the flux of cholesterol from the plasma membrane to the lysosome-ER transport pathway. When this flux is activated and hydroxy cholesterol is supplied in excess, the inability to efficiently store cholesterol may cause subcellular accumulation of cholesterol/hydroxycholesterol in organelles that normally maintain low cholesterol levels. To test this hypothesis, the inventor's repeated the live cell confocal microscopy experiments with SK-N-BE(2) cells stained with fluorescent cholesterol (NBD-cholesterol) and the lysosome dye lysotracker.
SK-N-BE(2) cells were seeded into fibronectin coated glass bottom 96 well plates (Matriplate) at a cell density of 40,000 cells/well using low background imaging media (FluoroBrite DMEM with all supplements described, above). At the time of seeding, nile red (ThermoFisher) was added at a final concentration of 100 ng/mL and NBD-cholesterol (ThermoFisher) was added at a final concentration of 10 μg/mL. […] Lipid droplets and their sizes were detected and quantified using the ImageJ Find Particles Function, and data was subsequently processed using Microsoft Excel. Error depicted represents the standard deviation calculated from three biological replicates. […]

## C=C(C)[C@@H]1CCC(C)=C[C@H]1c1c(O)cc(CCCCC)cc1O [CBD, cannabidiol]
SK-N-BE(2) cells [1]; Homo sapiens, SKNBE2, SK-N-BE(2), greatest at 72 hours, approximate, read-out: EC50 of toxicity
  EC50: ~20 µM
SK-N-BE(2) cells [1]; after 24 hours
  doses that can induce cell death: > 40 µM
SK-N-BE(2) cells [2]
  HMG-CR expression: transcriptional activation
SK-N-BE(2) cells [3]
  fluorescent cholesterol in lysosomes: accumulates in labeled lysosomes
